Data: ChEMBL document CHEMBL6114980, “Single or double lipid-modified ultra-short antimicrobial peptides for treating infections caused by resistant bacteria” (Eur J Med Chem, 2025)
≈ marks a conversion by molar mass, not a printed value. Calls of active or inactive are those of the source. The calls are words filed in the database; no cut-off is given here.

Assays:
Cell membrane [1] = test: Induction of outer membrane permeabilization in Escherichia coli assessed as increase in fluorescence intensity measured for 10 mins by fluorescence based NPN uptake assay
Escherichia coli [2] = test: Induction of cell membrane disruption in Escherichia coli assessed as PI uptake at 2 times MIC measured after 120 mins by PI staining based flow cytometry analysis (Rvb =<10 %); type: functional; settings: 2 h
Staphylococcus aureus [3] = test: Antibacterial activity against Staphylococcus aureus 25923 at sub-MIC concentration measured after 15 passages in presence of rifampin; type: functional, organism-based
Klebsiella pneumoniae [4] = test: Induction of morphological changes in Klebsiella pneumoniae assessed as cell contraction at 2 times MIC measured after 30 mins by SEM analysis; type: functional, organism-based
Cell membrane [5] = test: Induction of outer membrane permeabilization in Escherichia coli assessed as increase in fluorescence intensity at 0.5 times MIC measured for 10 mins by fluorescence based NPN uptake assay
Cell membrane [6] = test: Induction of cytoplasmic membrane depolarization in Staphylococcus aureus assessed as increase in fluorescence intensity at 0.5 to 4 times MIC measured for 10 mins by DiSC3-5 dye based fluorescence assay; type: subcellular
Cell membrane [7] = test: Induction of inner membrane permeabilization in Escherichia coli at 0.5 to 4 times MIC measured for 135 mins by absorbance based analysis
Escherichia coli [8] = test: Antibacterial activity against Escherichia coli 25922 at sub-MIC concentration measured after 15 passages in presence of rifampin; type: functional, organism-based
Klebsiella pneumoniae [9] = test: Induction of morphological changes in Klebsiella pneumoniae assessed as cell adhesion at 2 times MIC measured after 120 mins by SEM analysis; type: functional, organism-based
Klebsiella pneumoniae [10] = test: Antibacterial activity against Klebsiella pneumoniae ATCC 700603 infected in male BALB/c mouse lung infection model assessed as reduction in number of inflammatory cells at 5 mg/kg, ip measured after 6 to 36 hrs; type: functional, organism-based; settings: time 6-36 hrs
Staphylococcus aureus [11] = test: Antibacterial activity against methicillin resistant Staphylococcus aureus infected in male BALB/c mouse model of skin wound infection assessed as reduction in wound area at 2 mg/kg, ip measured after 6 to 36 hrs postinfection; type: functional, organism-based; settings: time 6-36 hrs
Escherichia coli [12] = test: Induction of cell membrane disruption in Escherichia coli assessed as PI uptake at 4 times MIC measured after 120 mins by PI staining based flow cytometry analysis; type: functional, organism-based
Klebsiella pneumoniae [13] = test: Induction of morphological changes in Klebsiella pneumoniae assessed as cell contraction at 2 times MIC measured after 120 mins by SEM analysis; type: functional, organism-based
Klebsiella pneumoniae [14] = test: Induction of morphological changes in Klebsiella pneumoniae assessed as cell aggregation at 2 times MIC measured after 120 mins by SEM analysis; type: functional, organism-based
Klebsiella pneumoniae [15] = test: Induction of morphological changes in Klebsiella pneumoniae assessed as cell adhesion at 2 times MIC measured after 30 mins by SEM analysis; type: functional, organism-based
Klebsiella pneumoniae [16] = test: Induction of morphological changes in Klebsiella pneumoniae assessed as cell aggregation at 2 times MIC measured after 30 mins by SEM analysis; type: functional, organism-based
Lipopolysaccharide (LPS) = test: Binding affinity to LPS (unknown origin) assessed as reduction in bacterial mortality at 2 times MIC preincubated with LPS for 1 hr followed by bacteria addition for 24 hrs by spectrophotometric analysis
Staphylococcus aureus [17] = test: Antibacterial activity against Staphylococcus aureus 25923 at sub-MIC concentration measured after 15 passages; type: functional, organism-based
Staphylococcus aureus [18] = test: Drug resistance, ratio of MIC for Staphylococcus aureus 25923 after 15 passages exposure to MIC for Staphylococcus aureus 25923 during first exposure; type: functional
Staphylococcus aureus [19] = test: Antibacterial activity against methicillin-resistant Staphylococcus aureus 75 assessed as reduction in bacterial growth incubated for 18 to 24 hrs by broth microdilution method; type: functional; settings: time 18-24 hrs
Escherichia coli [20] = test: Antibacterial activity against Escherichia coli 850 assessed as reduction in bacterial growth incubated for 18 to 24 hrs by broth microdilution method; type: functional; settings: time 18-24 hrs
Pseudomonas aeruginosa [21] = test: Antibacterial activity against Pseudomonas aeruginosa ATCC 27853 assessed as reduction in bacterial growth incubated for 18 to 24 hrs by broth microdilution method; type: functional; settings: time 18-24 hrs
Acinetobacter baumannii [22] = test: Antibacterial activity against Acinetobacter baumannii 5444 assessed as reduction in bacterial growth incubated for 18 to 24 hrs by broth microdilution method; type: functional; settings: time 18-24 hrs
Staphylococcus aureus [23] = test: Antibacterial activity against Staphylococcus aureus 125 assessed as reduction in bacterial growth incubated for 18 to 24 hrs by broth microdilution method; type: functional; settings: time 18-24 hrs
Staphylococcus aureus [24] = test: Antibacterial activity against methicillin-resistant Staphylococcus aureus ATCC 33591 assessed as reduction in bacterial growth incubated for 18 to 24 hrs by broth microdilution method; type: functional; settings: time 18-24 hrs
Staphylococcus aureus [25] = test: Drug resistance, ratio of MIC for Staphylococcus aureus 25923 after 4 passages exposure to MIC for Staphylococcus aureus 25923 during first exposure; type: functional
Klebsiella pneumoniae [26] = test: Antibacterial activity against Klebsiella pneumoniae ATCC 700603 assessed as reduction in bacterial growth incubated for 18 to 24 hrs by broth microdilution method; type: functional; settings: time 18-24 hrs
Acinetobacter baumannii [27] = test: Antibacterial activity against Acinetobacter baumannii ATCC 19606 assessed as reduction in bacterial growth incubated for 18 to 24 hrs by broth microdilution method; type: functional; settings: time 18-24 hrs
Staphylococcus aureus [28] = test: Antibacterial activity against Staphylococcus aureus 113 assessed as reduction in bacterial growth incubated for 18 to 24 hrs by broth microdilution method; type: functional; settings: time 18-24 hrs
Escherichia coli [29] = test: Drug resistance, ratio of MIC for Escherichia coli 25922 after 15 passages exposure to MIC for Escherichia coli 25922 during first exposure; type: functional
Pseudomonas aeruginosa [30] = test: Antibacterial activity against Pseudomonas aeruginosa 124 assessed as reduction in bacterial growth incubated for 18 to 24 hrs by broth microdilution method; type: functional; settings: time 18-24 hrs
Bacillus subtilis = test: Antibacterial activity against Bacillus subtilis ATCC 23857 assessed as reduction in bacterial growth incubated for 18 to 24 hrs by broth microdilution method; type: functional; settings: time 18-24 hrs
Staphylococcus aureus [31] = test: Antibacterial activity against Staphylococcus aureus 794 assessed as reduction in bacterial growth incubated for 18 to 24 hrs by broth microdilution method; type: functional; settings: time 18-24 hrs
Escherichia coli [32] = test: Antibacterial activity against Escherichia coli 780 assessed as reduction in bacterial growth incubated for 18 to 24 hrs by broth microdilution method; type: functional; settings: time 18-24 hrs
Escherichia coli [33] = test: Drug resistance, ratio of MIC for Escherichia coli 25922 after 7 passages exposure to MIC for Escherichia coli 25922 during first exposure; type: functional
Enterococcus faecalis = test: Antibacterial activity against Enterococcus faecalis ATCC 29212 assessed as reduction in bacterial growth incubated for 18 to 24 hrs by broth microdilution method; type: functional; settings: time 18-24 hrs
Acinetobacter baumannii [34] = test: Antibacterial activity against Acinetobacter baumannii 92359 assessed as reduction in bacterial growth incubated for 18 to 24 hrs by broth microdilution method; type: functional; settings: time 18-24 hrs
Staphylococcus aureus [35] = test: Antibacterial activity against Staphylococcus aureus ATCC 25923 assessed as reduction in bacterial growth incubated for 18 to 24 hrs by broth microdilution method; type: functional; settings: time 18-24 hrs
Pseudomonas aeruginosa [36] = test: Antibacterial activity against Pseudomonas aeruginosa 6434N assessed as reduction in bacterial growth incubated for 18 to 24 hrs by broth microdilution method; type: functional; settings: time 18-24 hrs
Escherichia coli [37] = test: Antibacterial activity against Escherichia coli ATCC 25922 assessed as reduction in bacterial growth incubated for 18 to 24 hrs by broth microdilution method; type: functional; settings: time 18-24 hrs
[38] = tested on: Staphylococcus epidermidis; test: Antibacterial activity against Staphylococcus epidermidis ATCC 12228 assessed as reduction in bacterial growth incubated for 18 to 24 hrs by broth microdilution method; type: functional; settings: time 18-24 hrs

## CC(C)CCCCC(=O)N[C@@H](CCN)C(=O)N[C@H](C(=O)N[C@@H](CCN)C(=O)N[C@H]1CCNC(=O)[C@H]([C@@H](C)O)NC(=O)[C@H](CCN)NC(=O)[C@H](CCN)NC(=O)[C@H](CC(C)C)NC(=O)[C@@H](Cc2ccccc2)NC(=O)[C@@H](CCN)NC1=O)[C@@H](C)O.CC[C@H](C)CCCCC(=O)N[C@@H](CCN)C(=O)N[C@H](C(=O)N[C@@H](CCN)C(=O)N[C@H]1CCNC(=O)[C@H]([C@@H](C)O)NC(=O)[C@H](CCN)NC(=O)[C@H](CCN)NC(=O)[C@H](CC(C)C)NC(=O)[C@@H](Cc2ccccc2)NC(=O)[C@@H](CCN)NC1=O)[C@@H](C)O
Cell membrane [1]
  Activity: Dose-dependent-effect
Escherichia coli [2]
  Activity: >20%
Staphylococcus aureus [3]
  Activity: Active
Klebsiella pneumoniae [4]
  Activity: Active
Cell membrane [5]
  Activity: Active; Compound Showed Slightly Inferior Activity Than Compound D8
Cell membrane [6]
  Activity: Weak_effect
Cell membrane [7]
  Activity: Active; Compound Showed Lower Efficacy Than Positive Control 0.1% Tritionx 100
Escherichia coli [8]
  Activity: Active
Klebsiella pneumoniae [9]
  Activity: Active
Klebsiella pneumoniae [10]
  Activity: inactive
Staphylococcus aureus [11]
  Activity: Active
Escherichia coli [12]
  Activity: inactive
Klebsiella pneumoniae [13]
  Activity: Active
Klebsiella pneumoniae [14]
  Activity: Active
Klebsiella pneumoniae [15]
  Activity: Active
Klebsiella pneumoniae [16]
  Activity: Active
Lipopolysaccharide (LPS)
  Activity: Active
Staphylococcus aureus [17]
  Activity: inactive

## CO[C@H]1/C=C/O[C@@]2(C)Oc3c(C)c(O)c4c(O)c(c(/C=N/N5CCN(C)CC5)c(O)c4c3C2=O)NC(=O)/C(C)=C\C=C\[C@H](C)[C@H](O)[C@@H](C)[C@@H](O)[C@@H](C)[C@H](OC(C)=O)[C@@H]1C [RIFAMPIN]
Staphylococcus aureus [18]
  fold change (FC): 512
Staphylococcus aureus [19]
  MIC: 128 µM (≈ 105 µg/mL)
Escherichia coli [20]
  MIC: 16 µM (≈ 13.2 µg/mL)
Pseudomonas aeruginosa [21]
  MIC: 32 µM (≈ 26.3 µg/mL)
Acinetobacter baumannii [22]
  MIC: 16 µM (≈ 13.2 µg/mL)
Staphylococcus aureus [23]
  MIC: 1 µM (≈ 0.823 µg/mL)
Staphylococcus aureus [24]
  MIC: 128 µM (≈ 105 µg/mL)
Staphylococcus aureus [25]
  fold change (FC): 8
Klebsiella pneumoniae [26]
  MIC: 16 µM (≈ 13.2 µg/mL)
Acinetobacter baumannii [27]
  MIC: 1 µM (≈ 0.823 µg/mL)
Staphylococcus aureus [28]
  MIC: 1 µM (≈ 0.823 µg/mL)
Escherichia coli [29]
  fold change (FC): 64
Pseudomonas aeruginosa [30]
  MIC: 128 µM (≈ 105 µg/mL)
Bacillus subtilis
  MIC: 1 µM (≈ 0.823 µg/mL)
Staphylococcus aureus [31]
  MIC: 4 µM (≈ 3.29 µg/mL)
Escherichia coli [32]
  MIC: 16 µM (≈ 13.2 µg/mL)
Escherichia coli [33]
  fold change (FC): 8
Enterococcus faecalis
  MIC: 1 µM (≈ 0.823 µg/mL)
Acinetobacter baumannii [34]
  MIC: 16 µM (≈ 13.2 µg/mL)
Staphylococcus aureus [35]
  MIC: 1 µM (≈ 0.823 µg/mL)
Pseudomonas aeruginosa [36]
  MIC: 16 µM (≈ 13.2 µg/mL)
Escherichia coli [37]
  MIC: 8 µM (≈ 6.58 µg/mL)
[38]
  MIC: 1 µM (≈ 0.823 µg/mL)
